According to patent EP0877740B1, “THIOL DERIVATIVES WITH METALLOPEPTIDASE INHIBITORY ACTIVITY” (ZAMBON GROUP S.p.A., priority 1995, dated 1997):
pIC50: −log10 of the molar value.

What was measured:
ACE = target: T1, ACE (Oryctolagus cuniculus, UniProt P12822); assay: In vitro ACE-inhibitory activity (FAPGG substrate, spectrophotometric); assay type: biochemical; conditions: ACE purified by lung rabbit, FAPGG 0.8 mM, 37°C
T1 construct: ACE (250 mU/ml purified by lung rabbit, EC 3.4.15.1 SIGMA); purchased SIGMA; host or cells: rabbit lung (tissue-purified)
T1 sequence (P12822 34-1310): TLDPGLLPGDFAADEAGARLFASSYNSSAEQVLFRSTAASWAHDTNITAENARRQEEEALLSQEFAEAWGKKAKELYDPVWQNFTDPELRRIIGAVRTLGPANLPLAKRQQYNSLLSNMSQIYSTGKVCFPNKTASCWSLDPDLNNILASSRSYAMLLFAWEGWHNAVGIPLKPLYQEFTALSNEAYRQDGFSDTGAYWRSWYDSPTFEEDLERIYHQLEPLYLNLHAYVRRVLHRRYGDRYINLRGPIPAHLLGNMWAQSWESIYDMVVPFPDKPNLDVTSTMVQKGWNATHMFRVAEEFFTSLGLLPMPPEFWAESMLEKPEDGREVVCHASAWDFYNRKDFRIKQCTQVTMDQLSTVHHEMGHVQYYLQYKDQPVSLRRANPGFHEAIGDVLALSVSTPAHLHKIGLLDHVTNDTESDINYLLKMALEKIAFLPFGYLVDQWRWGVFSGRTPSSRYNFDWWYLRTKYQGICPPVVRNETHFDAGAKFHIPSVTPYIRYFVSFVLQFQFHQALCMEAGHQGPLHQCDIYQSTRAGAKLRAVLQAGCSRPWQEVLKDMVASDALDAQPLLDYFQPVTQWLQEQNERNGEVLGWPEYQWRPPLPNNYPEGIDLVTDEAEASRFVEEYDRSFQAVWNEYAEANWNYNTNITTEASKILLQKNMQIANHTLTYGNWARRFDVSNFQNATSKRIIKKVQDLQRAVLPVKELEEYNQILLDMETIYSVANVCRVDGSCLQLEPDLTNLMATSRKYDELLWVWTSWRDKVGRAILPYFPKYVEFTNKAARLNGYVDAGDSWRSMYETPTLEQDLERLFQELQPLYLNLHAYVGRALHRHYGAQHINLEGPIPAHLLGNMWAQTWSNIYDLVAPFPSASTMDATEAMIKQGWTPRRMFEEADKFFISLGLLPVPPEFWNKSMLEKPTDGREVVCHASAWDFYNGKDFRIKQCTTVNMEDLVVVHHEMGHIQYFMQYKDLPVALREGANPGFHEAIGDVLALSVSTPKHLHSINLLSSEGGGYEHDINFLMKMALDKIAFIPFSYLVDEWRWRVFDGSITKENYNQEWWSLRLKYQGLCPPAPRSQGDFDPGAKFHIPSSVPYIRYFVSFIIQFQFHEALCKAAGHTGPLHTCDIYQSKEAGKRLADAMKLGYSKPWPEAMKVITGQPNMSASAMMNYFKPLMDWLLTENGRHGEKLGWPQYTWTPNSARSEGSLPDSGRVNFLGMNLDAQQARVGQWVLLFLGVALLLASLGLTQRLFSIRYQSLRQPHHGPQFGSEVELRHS
Experimental: […] of ACE (250 mU/ml purified by lung rabbit, EC 3.4.15.1 SIGMA) were preincubated with 50 µl of the compound of formula I or of the reference compound or related vehicle in thermostated cuvettes at 37°C.
The reaction was started by adding furylacryloylphenylalanylglycylglycine 0.8 mM (FAPGG-SIGMA).
Contemporaneously, by using a Beckman DU-50 spectrophotometer provided with a program for calculating delta A/minutes and regression coefficients of the enzyme kinetics curves, the absorbance at 340 nm was recorded in continuo for 5 minutes.
The percentage of the enzyme inhibition in the preparations treated with the compounds of formula I or with the comparative compounds with respect to the untreated preparations was expressed as IC50 (nM) value.

NEP = target: T2, NEP (Rattus norvegicus, UniProt P07861); assay: In vitro NEP-inhibitory activity in rat kidney cortex membranes ([3H][Leu5]-enkephaline hydrolysis); assay type: biochemical; design: Kidneys were removed from male Sprague-Dawley rats weighing approximately 300 g; from tissue; host or cells: rat kidney cortex membranes (male Sprague-Dawley); conditions: [3H][Leu5]-enkephaline 15 nM, 30°C
T2 sequence (P07861 1-750): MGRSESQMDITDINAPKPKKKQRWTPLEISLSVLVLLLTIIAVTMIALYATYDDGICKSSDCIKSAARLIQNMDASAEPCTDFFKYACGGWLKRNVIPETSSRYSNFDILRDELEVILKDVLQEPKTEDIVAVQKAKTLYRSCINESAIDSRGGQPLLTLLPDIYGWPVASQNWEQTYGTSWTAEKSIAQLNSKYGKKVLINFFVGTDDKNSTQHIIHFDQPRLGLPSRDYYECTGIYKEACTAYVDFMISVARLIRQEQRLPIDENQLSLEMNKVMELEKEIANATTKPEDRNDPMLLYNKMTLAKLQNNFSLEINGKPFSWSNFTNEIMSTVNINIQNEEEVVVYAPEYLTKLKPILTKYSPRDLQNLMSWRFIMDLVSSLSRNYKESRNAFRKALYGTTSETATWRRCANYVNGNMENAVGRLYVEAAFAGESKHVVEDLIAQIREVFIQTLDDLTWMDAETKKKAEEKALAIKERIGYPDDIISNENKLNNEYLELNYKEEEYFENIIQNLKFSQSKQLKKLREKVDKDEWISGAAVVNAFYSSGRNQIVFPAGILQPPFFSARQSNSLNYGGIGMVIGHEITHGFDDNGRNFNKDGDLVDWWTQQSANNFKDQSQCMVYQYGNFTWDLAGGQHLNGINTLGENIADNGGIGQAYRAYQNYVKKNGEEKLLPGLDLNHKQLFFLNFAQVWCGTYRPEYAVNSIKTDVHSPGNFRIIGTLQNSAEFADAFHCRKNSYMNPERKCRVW
Experimental: The NEP-inhibitory activity was evaluated in rat kidney cortex membranes prepared according to the procedure described by T. Maeda et al. in Biochim. Biophys.
Kidneys were removed from male Sprague-Dawley rats weighing approximately 300 g and kept at 4°C.
Kidney cortex was carefully dissected, finely minced and suspended in a homogenization buffer (10 mM sodium phosphate pH 7.4 containing 1 mM MgCl2, 30 mM NaCl, 0.02% NaN3) 1:15 weight/volume.
The tissue was then cold homogenized for 30 seconds using an Ultra-Turrax homogenizer.
The membranes were collected from the buffer/sucrose interface, washed twice with 50 mM TRIS/HCl buffer (pH 7.4) and resuspended into the same buffer for storage in small aliquots at -80°C until use.
The NEP-inhibitory activity was evaluated by using the method described by C.
Aliquots of the membrane suspension prepared as above described (concentration 5 µg/ml of proteins) were preincubated in the presence of an aminopeptidase inhibitor (Bestatin - 1 mM) for 10 minutes at 30°C.
Incubation (20 minutes at 30°C) was stopped by adding HCI 0.1M (100 µl).
The formation of the metabolite [^3H]Tyr-Gly-Gly was quantified by chromatography on polystyrene columns (Porapak Q).
The percentage of inhibition of the metabolite formation in the membrane preparations treated with the compounds of formula I and with the comparative compounds with respect to the untreated membrane preparations was expressed as IC50 (nM) value.

## COc1cccc(CC(CS)C(=O)N[C@@H](Cc2ccc(-c3nccs3)cc2)C(=O)O)c1 (stereo partly drawn) [Compound 29, N-[3-mercapto-2-(3-methoxyphenyl)methyl-propionyl]-4-(2-thiazolyl)-L-phenylalanine]
ACE
  pIC50: 8.34
NEP
  pIC50: 8.05

## O=C(N[C@@H](Cc1ccc(-c2cnccn2)cc1)C(=O)O)[C@@H](CS)Cc1ccccc1 [Compound 20, N-[(2S)-3-mercapto-2-phenylmethylpropionyl]-4-(2-pyrazinyl)-L-phenylalanine]
ACE
  pIC50: 8.82
NEP
  pIC50: 8.60

## O=C(N[C@@H](Cc1ccc(-c2nccs2)cc1)C(=O)O)C(CS)Cc1cccs1 (stereo partly drawn) [Compound 31, N-[3-mercapto-2-(2-thienyl)methyl-proionyl]-4-(2-thiazolyl)-L-phenylalanine]
ACE
  pIC50: 8.07
NEP
  pIC50: 8.92

## C[C@H](CS)C(=O)N1CCC[C@H]1C(=O)O [Captopril, reference compound]
NEP
  NEP-inhibitory activity IC50 (nM): not active

## O=C(N[C@@H](Cc1ccc(-c2cncnc2)cc1)C(=O)O)[C@@H](CS)Cc1ccccc1 [Compound 19, N-[(2S)-3-mercapto-2-phenylmethylpropionyl]-4-(5-pyrimidinyl)-L-phenylalanine]
ACE
  pIC50: 8.72
NEP
  pIC50: 8.74

## O=C(N[C@@H](Cc1ccc(-c2nccs2)cc1)C(=O)O)C(CS)Cc1cccnc1 (single isomer, unassigned) [Compound 27, N-[3-mercapto-2-(3-pyridylmethyl)propionyl]-4-(2-thiazolyl)-L-phenylalanine]
ACE
  pIC50: 8.04
NEP
  pIC50: 7.76

## O=C(N[C@@H](Cc1ccc(-c2ccoc2)cc1)C(=O)O)[C@@H](CS)Cc1ccccc1 [Compound 25, N-[(2S)-3-mercapto-2-phenylmethylpropionyl]-4-(3-furyl)-L-phenylalanine]
ACE
  pIC50: 8.62
NEP
  pIC50: 9.00

## O=C(N[C@@H](Cc1ccc(-c2nccs2)cc1)C(=O)O)C(CS)Cc1ccco1 (stereo partly drawn) [Compound 32, N-[3-mercapto-2-(2-furyl)methyl-propionyl]-4-(2-thiazolyl)-L-phenylalanine]
ACE
  pIC50: 8.07
NEP
  pIC50: 8.40

## O=C(N[C@@H](Cc1ccc(-c2cccnc2)cc1)C(=O)O)[C@@H](CS)Cc1ccccc1 [Compound 21, N-[(2S)-3-mercapto-2-phenylmethylpropionyl]-4-(3-pyridyl)-L-phenylalanine]
ACE
  pIC50: 8.77
NEP
  pIC50: 8.59

## O=C(N[C@@H](Cc1ccc(-c2ccccn2)cc1)C(=O)O)[C@@H](CS)Cc1ccccc1 [Compound 22, N-[(2S)-3-mercapto-2-phenylmethylpropionyl]-4-(2-pyridyl)-L-phenylalanine]
ACE
  pIC50: 8.74
NEP
  pIC50: 8.70

## O=C(N[C@@H](Cc1ccc(-c2ccco2)cc1)C(=O)O)[C@@H](CS)Cc1ccccc1 [Compound 18, N-[(2S)-3-mercapto-2-phenylmethylpropionyl]-4-(2-furyl)-L-phenylalanine]
ACE
  pIC50: 8.74
NEP
  pIC50: 8.74

## O=C(N[C@@H](Cc1ccc(-c2nccs2)cc1)C(=O)O)C(CS)Cc1ccccc1F (stereo partly drawn) [Compound 30, N-[3-mercapto-2-(2-fluorophenyl)methyl-propionyl]-4-(2-thiazolyl)-L-phenylalanine]
ACE
  pIC50: 7.97
NEP
  pIC50: 7.95

## Cc1cc(CC(CS)C(=O)N[C@@H](Cc2ccc(-c3nccs3)cc2)C(=O)O)on1 (stereo partly drawn) [Compound 33, N-[3-mercapto-2-(3-methyl-5-isoxazolyl)methyl-propionyl]-4-(2-thiazolyl)-L-phenylalanine]
ACE
  pIC50: 8.10
NEP
  pIC50: 8.35

## O=C(N[C@@H](Cc1ccc(-c2ccsc2)cc1)C(=O)O)[C@@H](CS)Cc1ccccc1 [Compound 24, N-[(2S)-3-mercapto-2-phenylmethylpropionyl]-4-(3-thienyl)-L-phenylalanine]
ACE
  pIC50: 8.60
NEP
  pIC50: 8.89

## O=C(N[C@@H](Cc1ccc(-c2cccs2)cc1)C(=O)O)[C@@H](CS)Cc1ccccc1 [Compound 23, N-[(2S)-3-mercapto-2-phenylmethylpropionyl]-4-(2-thienyl)-L-phenylalanine]
ACE
  pIC50: 8.80
NEP
  pIC50: 9.22

## CC(C)CC(CS)C(=O)N[C@@H](Cc1ccc(-c2nccs2)cc1)C(=O)O (stereo partly drawn) [Compound 28, N-(2-isobutyl-3-mercapto-propionyl)-4-(2-thiazolyl)-L-phenylalanine]
ACE
  pIC50: 8.24
NEP
  pIC50: 8.74
